From article PMC3265452 (PLoS Neglected Tropical Diseases, 2012)
Counter-ions that a name gives are not always drawn. Like-named read-outs stand apart in the source and are kept apart here.

Target: AaDOP2 (Aedes aegypti, UniProt H6D5H2)
Assay: AaDOP2 antagonist screen of the LOPAC1280 library (HEK-CRELuc-Aadop2 cells, luminescence)
Type: cell-based
Settings: for inhibition at 10 µM: read-out: % of the SCH23390 effect (percent inhibition of receptor response relative to the SCH23390 control)
[1] = 10 µM compound, 300 nM dopamine, 2 hr, hit = compound effect <20

AaDOP2, sequence (H6D5H2 1-476): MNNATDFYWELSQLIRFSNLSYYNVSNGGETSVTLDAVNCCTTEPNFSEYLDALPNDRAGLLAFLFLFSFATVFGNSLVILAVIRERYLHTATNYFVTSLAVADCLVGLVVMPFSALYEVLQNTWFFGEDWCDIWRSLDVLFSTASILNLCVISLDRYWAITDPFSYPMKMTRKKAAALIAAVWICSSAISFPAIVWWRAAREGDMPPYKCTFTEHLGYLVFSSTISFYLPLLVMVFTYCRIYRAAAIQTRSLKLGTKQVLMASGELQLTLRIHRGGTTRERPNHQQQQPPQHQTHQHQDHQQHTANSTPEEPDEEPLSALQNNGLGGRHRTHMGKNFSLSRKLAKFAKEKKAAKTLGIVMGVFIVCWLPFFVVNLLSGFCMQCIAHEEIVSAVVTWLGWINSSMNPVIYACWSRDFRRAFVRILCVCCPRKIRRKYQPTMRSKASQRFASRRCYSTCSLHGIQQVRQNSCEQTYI

For `CN(C)c1ccc(/C=C2\C(=O)Nc3ccccc32)cc1` [Compound 1121, SU 4312], the “Compound effect (percent receptor signaling in presence of test compound, relative lux units relative to the SCH23390 control)” value was 51.
For `CCc1ccccc1OC[C@@H](O)CN[C@H]1CCCc2ccccc21.O=C(O)C(=O)O` [Compound 1122, SR 59230A oxalate], the “Compound effect (percent receptor signaling in presence of test compound, relative lux units relative to the SCH23390 control)” value was 75.
For `Cl.O=C(Cc1ccc(Cl)c(Cl)c1)N1CCCCC1CN1CCCC1` (stereo not shown) [Compound 1123, BRL 52537 hydrochloride], the “Compound effect (percent receptor signaling in presence of test compound, relative lux units relative to the SCH23390 control)” value was 97.
For `Cl.O=C(O)C1CCCN(CCC=C(c2ccccc2)c2ccccc2)C1` (stereo not shown) [Compound 1124, SKF 89976A hydrochloride], the “Compound effect (percent receptor signaling in presence of test compound, relative lux units relative to the SCH23390 control)” value [1] was 95%.
In the case of `Cc1ccc(O)c(N=Nc2ccccc2)n1` [Compound 1125, SIB 1757], the “Compound effect (percent receptor signaling in presence of test compound, relative lux units relative to the SCH23390 control)” value is reported as 46.
In the case of `Cc1cccc(/C=C/c2ccccc2)n1` [Compound 1126, SIB 1893], the “Compound effect (percent receptor signaling in presence of test compound, relative lux units relative to the SCH23390 control)” value is reported as 83.
With `Cl.c1ccc2c(N3CCNCC3)cccc2c1` [Compound 1127, 1-(1-Naphthyl)piperazine hydrochloride] the “Compound effect (percent receptor signaling in presence of test compound, relative lux units relative to the SCH23390 control)” value was 79.
In the case of `O=C(c1ccc(F)cc1)C1CCN(CCn2c(=O)[nH]c3ccccc3c2=O)CC1` [Compound 1128, Ketanserin tartrate], the “Compound effect (percent receptor signaling in presence of test compound, relative lux units relative to the SCH23390 control)” value is reported as 53.
With `COc1ccccc1N1CCNCC1.Cl` [Compound 1129, 1-(2-Methoxyphenyl)piperazine hydrochloride] the “Compound effect (percent receptor signaling in presence of test compound, relative lux units relative to the SCH23390 control)” value was 64.
With `Nc1ccc(CCN2CCN(c3cccc(C(F)(F)F)c3)CC2)cc1` [Compound 1130, PAPP] the “Compound effect (percent receptor signaling in presence of test compound, relative lux units relative to the SCH23390 control)” value was 66.
For `O=C1NCN(c2ccccc2)C12CCN(CC1COc3ccccc3O1)CC2` (stereo not shown) [Compound 1131, Spiroxatrine], the “Compound effect (percent receptor signaling in presence of test compound, relative lux units relative to the SCH23390 control)” value was 90.
In the case of `Br.COc1ccc(-c2ccc(=N)n(CCCC(=O)O)n2)cc1` [Compound 1132, SR-95531], the “Compound effect (percent receptor signaling in presence of test compound, relative lux units relative to the SCH23390 control)” value is reported as 101.
In the case of `CN(C)CCCCSC(=N)N.Cl.Cl` [Compound 1134, SKF 91488 dihydrochloride], the “Compound effect (percent receptor signaling in presence of test compound, relative lux units relative to the SCH23390 control)” value [1] is reported as 89%.
`Cc1ccc(C(=O)Nc2ccc(S(=O)(=O)O)c3cc(S(=O)(=O)O)cc(S(=O)(=O)O)c23)cc1NC(=O)c1cccc(NC(=O)Nc2cccc(C(=O)Nc3cc(C(=O)Nc4ccc(S(=O)(=O)O)c5cc(S(=O)(=O)O)cc(S(=O)(=O)O)c45)ccc3C)c2)c1` [Compound 1135, Suramin hexasodium] was tested, and the “Compound effect (percent receptor signaling in presence of test compound, relative lux units relative to the SCH23390 control)” value was 112.
In the case of `Nc1ncnc2c1ncn2C1CCCO1` (stereo not shown) [Compound 1136, SQ 22536], the “Compound effect (percent receptor signaling in presence of test compound, relative lux units relative to the SCH23390 control)” value is reported as 120.
`C[C@H](O)C(=O)C1=Nc2c(nc(N)[nH]c2=O)NC1` [Compound 1137, Sepiapterin] was tested, and the “Compound effect (percent receptor signaling in presence of test compound, relative lux units relative to the SCH23390 control)” value was 110.
With `COc1cc2c(cc1OC)[C@@H](c1ccccc1)CN(C)CC2.O=C(O)/C=C\C(=O)O` [Compound 1138, R(-)-SCH-12679 maleate] the “Compound effect (percent receptor signaling in presence of test compound, relative lux units relative to the SCH23390 control)” value [1] was 36%.
For `CCN(CC)CCOC(=O)c1cc(Cl)c(N)cc1OC.Cl` [Compound 1140, SDZ-205,557 hydrochloride], the “Compound effect (percent receptor signaling in presence of test compound, relative lux units relative to the SCH23390 control)” value [1] was 96%.
In the case of `Cl.Cn1ccc2cc3c(cc21)CCN3C(=O)Nc1cccnc1` [Compound 1141, SB 206553 hydrochloride], the “Compound effect (percent receptor signaling in presence of test compound, relative lux units relative to the SCH23390 control)” value is reported as 73.
In the case of `N[C@@H](Cc1c[nH]c2ccccc12)C(=O)O` [Compound 1143, L-Tryptophan], the “Compound effect (percent receptor signaling in presence of test compound, relative lux units relative to the SCH23390 control)” value is reported as 114.
With `COc1ccc(/C=C/C(=O)Nc2ccccc2C(=O)O)cc1OC` [Compound 1144, Tranilast] the “Compound effect (percent receptor signaling in presence of test compound, relative lux units relative to the SCH23390 control)” value was 73.
`CCN(CC)CCNC(=O)c1cc(S(C)(=O)=O)ccc1OC` [Compound 1145, Tiapride hydrochloride] was tested, and the “Compound effect (percent receptor signaling in presence of test compound, relative lux units relative to the SCH23390 control)” value was 96.
With `NCCS(=O)(=O)O` [Compound 1146, Taurine] the “Compound effect (percent receptor signaling in presence of test compound, relative lux units relative to the SCH23390 control)” value was 101.
With `CN1CCN(CC/C=C2/c3ccccc3Sc3ccc(S(=O)(=O)N(C)C)cc32)CC1.Cl` [Compound 1147, Thiothixene hydrochloride] the “% of the SCH23390 effect (percent inhibition of receptor response relative to the SCH23390 control)” value (10 µM compound, 300 nM dopamine, 2 hr) was 86% and the “Compound effect (percent receptor signaling in presence of test compound, relative lux units relative to the SCH23390 control)” value [1] was 14%.
For `CCCCNC(=O)NS(=O)(=O)c1ccc(C)cc1` [Compound 1148, Tolbutamide], the “Compound effect (percent receptor signaling in presence of test compound, relative lux units relative to the SCH23390 control)” value was 112.
In the case of `CCN(CC)C(=S)SSC(=S)N(CC)CC` [Compound 1149, Tetraethylthiuram disulfide], the “Compound effect (percent receptor signaling in presence of test compound, relative lux units relative to the SCH23390 control)” value [1] is reported as 89%.
In the case of `Clc1cnc(Oc2ccc(Oc3ncc(Cl)cc3Cl)cc2)c(Cl)c1` [Compound 1150, TCPOBOP], the “Compound effect (percent receptor signaling in presence of test compound, relative lux units relative to the SCH23390 control)” value is reported as 91.
`CC(C)NP(=O)(NC(C)C)OP(=O)(NC(C)C)NC(C)C` [Compound 1151, Tetraisopropyl pyrophosphoramide] was tested, and the “Compound effect (percent receptor signaling in presence of test compound, relative lux units relative to the SCH23390 control)” value was 111.
In the case of `c1ccc(C2CN3CCSC3=N2)cc1` (stereo not shown) [Compound 1152, Tetramisole hydrochloride], the “Compound effect (percent receptor signaling in presence of test compound, relative lux units relative to the SCH23390 control)” value is reported as 118.
In the case of `OC(CCN1CCCCC1)(c1ccccc1)C1CCCCC1` (stereo not shown) [Compound 1153, Trihexyphenidyl hydrochloride], the “Compound effect (percent receptor signaling in presence of test compound, relative lux units relative to the SCH23390 control)” value is reported as 92.
For `Cn1c(=O)c2[nH]cnc2n(C)c1=O` [Compound 1154, Theophylline], the “Compound effect (percent receptor signaling in presence of test compound, relative lux units relative to the SCH23390 control)” value was 98.
`NC/C=C/C(=O)O` [Compound 1155, (E)-4-amino-2-butenoic acid] was tested, and the “Compound effect (percent receptor signaling in presence of test compound, relative lux units relative to the SCH23390 control)” value was 126.
In the case of `CCCCCCCCCCCCCCSCC(=O)O` [Compound 1156, Tetradecylthioacetic acid], the “Compound effect (percent receptor signaling in presence of test compound, relative lux units relative to the SCH23390 control)” value is reported as 101.
`COc1cc2c(cc1OC)-c1c/c(=N\c3c(C)cc(C)cc3C)n(C)c(=O)n1CC2` [Compound 1157, Trequinsin hydrochloride] was tested, and the “Compound effect (percent receptor signaling in presence of test compound, relative lux units relative to the SCH23390 control)” value was 133.
With `CC(C)(C)c1cc(/C=C(\C#N)C(N)=S)cc(C(C)(C)C)c1O` [Compound 1158, Tyrphostin AG 879] the “Compound effect (percent receptor signaling in presence of test compound, relative lux units relative to the SCH23390 control)” value was 33.
In the case of `CC[N+](CC)(CC)CC` [Compound 1159, Tetraethylammonium chloride], the “Compound effect (percent receptor signaling in presence of test compound, relative lux units relative to the SCH23390 control)” value is reported as 108.
For `Cc1ccc(S(=O)(=O)NC(=O)NN2CCCCCC2)cc1` [Compound 1160, Tolazamide], the “Compound effect (percent receptor signaling in presence of test compound, relative lux units relative to the SCH23390 control)” value was 107.
In the case of `CC(C)(C)NCC(O)c1cc(O)cc(O)c1.CC(C)(C)NCC(O)c1cc(O)cc(O)c1.O=S(=O)(O)O` (stereo not shown) [Compound 1161, Terbutaline hemisulfate], the “Compound effect (percent receptor signaling in presence of test compound, relative lux units relative to the SCH23390 control)” value [1] is reported as 119%.
In the case of `CN(C)CCCN1c2ccccc2Sc2ccc(C(F)(F)F)cc21` [Compound 1163, Triflupromazine hydrochloride], the “Compound effect (percent receptor signaling in presence of test compound, relative lux units relative to the SCH23390 control)” value is reported as 12 and the inhibition at 10 µM is reported as 88%.
In the case of `CC(CN(C)C)CN1c2ccccc2CCc2ccccc21` (stereo not shown) [Compound 1164, Trimipramine maleate], the “Compound effect (percent receptor signaling in presence of test compound, relative lux units relative to the SCH23390 control)” value is reported as 13 and the inhibition at 10 µM is reported as 87%.
`N#C/C(=C\c1ccc(O)c(O)c1)C(=O)NCc1ccccc1` [Compound 1165, Tyrphostin AG 490] was tested, and the “Compound effect (percent receptor signaling in presence of test compound, relative lux units relative to the SCH23390 control)” value was 96.
For `C/C(=C\c1ccc(C(=O)O)cc1)c1ccc2c(c1)C(C)(C)CCC2(C)C` [Compound 1166, TTNPB], the “Compound effect (percent receptor signaling in presence of test compound, relative lux units relative to the SCH23390 control)” value [1] was 98%.
For `COc1cc2nc(N3CCN(C(=O)OCc4ccccc4)[C@H](C(=O)NC(C)(C)C)C3)nc(N)c2cc1OC` [Compound 1167, L-765,314], the “Compound effect (percent receptor signaling in presence of test compound, relative lux units relative to the SCH23390 control)” value was 112.
`Nc1nc(N)c2nc(-c3ccccc3)c(N)nc2n1` [Compound 1168, Triamterene] was tested, and the “Compound effect (percent receptor signaling in presence of test compound, relative lux units relative to the SCH23390 control)” value was 115.
`COc1cc2ncnc(Nc3cccc(Cl)c3)c2cc1OC` [Compound 1169, Tyrphostin AG 1478] was tested, and the “Compound effect (percent receptor signaling in presence of test compound, relative lux units relative to the SCH23390 control)” value was 88.
`c1ccc2c(c1)CCCC2C1=NCCN1` (stereo not shown) [Compound 1170, Tetrahydrozoline hydrochloride] was tested, and the “Compound effect (percent receptor signaling in presence of test compound, relative lux units relative to the SCH23390 control)” value was 102.
With `N#C/C(=C\c1ccc(O)c(O)c1)C(=O)Nc1ccccc1` [Compound 1171, Tyrphostin AG 494] the “Compound effect (percent receptor signaling in presence of test compound, relative lux units relative to the SCH23390 control)” value was 83.
In the case of `Cc1ccc(S(=O)(=O)N[C@@H](Cc2ccccc2)C(=O)CCl)cc1` [Compound 1172, N-p-Tosyl-L-phenylalanine chloromethyl ketone], the “Compound effect (percent receptor signaling in presence of test compound, relative lux units relative to the SCH23390 control)” value [1] is reported as 83%.
For `CC(O)C(O)[C@H]1CNc2nc(N)[nH]c(=O)c2N1.Cl.Cl` (stereo partly drawn) [Compound 1173, (6R)-5,6,7,8-Tetrahydro-L-biopterin hydrochloride], the “Compound effect (percent receptor signaling in presence of test compound, relative lux units relative to the SCH23390 control)” value [1] was 109%.
In the case of `C[C@@H](NC(=O)/C(C#N)=C/c1ccc(O)c(O)c1)c1ccccc1` [Compound 1174, Tyrphostin AG 527], the “Compound effect (percent receptor signaling in presence of test compound, relative lux units relative to the SCH23390 control)” value is reported as 81.
For `Cn1cnc2c1c(=O)[nH]c(=O)n2C` [Compound 1175, Theobromine], the “Compound effect (percent receptor signaling in presence of test compound, relative lux units relative to the SCH23390 control)” value was 110.
With `N#C/C(=C\c1ccc(O)c(O)c1)C(=O)N1CCc2ccccc21` [Compound 1177, Tyrphostin AG 528] the “Compound effect (percent receptor signaling in presence of test compound, relative lux units relative to the SCH23390 control)” value was 78.
